Data on 2 compounds can be found in patent publication US20240299353A1, “COMPOSITIONS AND METHODS FOR TREATING […] 5-MEO-DMT” (Alvarius Pharmaceuticals Ltd., priority 2021, published 2024).

For assay [1], the system named is rats. The assay can be described thus: Forced swim test. The assay is classed as in vivo. The following applies: cohort 2; for immobility or time spent swimming: between treatment groups. The protocol: In this instance the animals were 9 weeks old at the initiation of drug exposures and we selected just the high (20 mg/kg) dose of 5-MeO-DMT from the molecular study. […] Due to the number of behavioral paradigms to be completed by each animal we divided the study into two cohorts staggered by two weeks with 8 animals coming from each cohort to make up the 16 animals for each treatment group. 23 hours after 5-MeO-DMT administration the animals were introduced to the open field arena where they were allowed to freely explore the area for 5 mins. Following the open field test (OFT) animals were returned to their home cage for 2 hours before beginning either the elevated plus maze (EPM) or pre-pulse inhibition (PPI) testing. 24 hours after completing the OFT animals were returned to the chamber for the first session in novel object (NO1) testing. The animals were returned to their home cage for 2 hours before beginning the EPM or PPI test. 24 hours after NO1 the animals returned to the open field chamber for the second session in novel object (N02) testing. After completing N02 animals were returned to their home cage for 2 hours before they underwent the forced swim test (FST) pre-test. 24 hours later the animals were returned to the FS cylinders for the FST. Upon completion of the FST all animals were euthanized. A timeline of this experimental cohort is described in FIG. 8A.
The experiment was conducted as described for cohort 1 for the first 13 days of injections. There are a number of notable differences in experimental procedures between the two cohorts of animals to be highlighted. […] Finally, the dose of 5-MeO-DMT was reduced to 10 mg/kg. […]
The FST apparatus consisted of a clear Plexiglas cylinder measuring 80 cm tall, 20 cm in diameter and filled with 40 cm of 24+1° C. water. […] 24 hours later, rats were again placed in the FST apparatus for 5 min and their activity was video recorded (FIG. 12A-12B). Each video was scored for immobility, swimming, and climbing behavior by trained blinded observers.

Assay [2] has as its system 5-HT1AR. Nature of the assay: Western blot of 5-HT1AR in brain regions, chronic cocaine ± 5-MeO-DMT. In kind it is in vivo, Male Wistar rats. From the text:
Male Wistar rats aged 7 weeks were acclimatized to the facility for 1 week prior to the beginning of the study. […] Animals were euthanized 23- or 119-hours following vehicle or 5-MeO-DMT administration.
Following euthanasia brain regions of interest were isolated. Briefly, the olfactory bulbs were removed before the brain was placed in a rat brain matrix (FIG. 2A). Sterile blades were inserted at positions 2 and 3 (FIG. 2B) to extract a coronal slice containing the Bregma+˜0.2-+˜2.2 coordinates (FIG. 2C). From this tissue slice a blunted 12 G needle was used to punch dissect the NAc and dorsal striatum (DS) (FIG. 2D-2E) identified using the rat brain atlas (Panxinos and Watson 2nd edition). The PFC, hippocampus (Hip) and amygdala (Amyg) were then blunt dissected (FIG. 3A-3D). All regions were frozen in liquid nitrogen and stored at −80° C. until processed.
These treatment groups were used for the molecular assessment of addiction-linked markers.
Determination of protein concentration—a bicinchoninic acid assay (BCA, ThermoFisher) was conducted to determine the total protein concentration in tissue lysates following manufacturer's instructions. Briefly, bovine serum albumin (BSA) standards were prepared in a serial dilution (0-2.0 mg protein/ml) and 200 μl working reagent (50:1, reagent A: reagent B) was added to each of the standards and samples in a 96 well plate (Greiner). For tissue lysates a 1:10 dilution was performed with cell lysis buffer to ensure absorbance values lay within the working range established by the standards. All samples and standards were added in duplicate. The plate was covered and incubated for 30 mins at 37° C. before absorbance was read at 562 nm on a plate reader (SpectraMax M3). The absorbance values were used to form a standard curve of known protein concentrations and protein concentration of samples were derived using the equation of the line. All samples were standardized to the lowest protein concentration using distilled H20 (dH2O).
SDS-PAGE and Western Blotting—Following equalisation of protein concentrations, 6× sample loading buffer (15% SDS, 15% […], 50% glycerol, 0.01% bromophenol blue, […]) was added to each sample using a dilution factor of 1:5 of the total volumes before boiling at 100° C. for 5 mins. Samples were stored at −20° C. until use. One dimensional sodium-dodecyl-sulphate polyacrylamide gel electrophoresis (SDS-PAGE) was used for protein separation based on molecular weight. The percentage of acrylamide in the resolving or stacking gel was determined by the molecular weight of the protein of interest. In this instance all gels consisted of a 5% stacking gel and a 10% resolving gel with the exception of mGluR5, G9a (8%) and H3K9Me2 (12%). 20 μg of protein was loaded and resolved using SDS-PAGE. Gel electrophoresis was conducted at 80V while the protein was in the stacking gel, once it migrated to the resolving gel the voltage was increased to 120V and ran for 90 mins. Samples were transferred to a 0.45 μm polyvinylidene difluoride (PVDF) membrane (Analab) for 1 hour at 100V and blocked in 5% milk blocking solution made in tris-buffered saline containing tween®-20 (TBS-T, Sigma) for 90 mins. Primary antibodies (FIG. 5) were diluted in 5% BSA in TBS-T and incubated with membranes overnight at 4° C. or for 2 hours at room temperature. After incubation with primary antibodies the membranes were washed in TBS-T for 4×10 minutes before incubation with 1:2000 anti-rabbit and 1:2000 anti-mouse Alexa Fluro® conjugated secondary antibodies (Invitrogen) in 2% milk for 1 hour at room temperature. Membranes were washed in TBS-T for 4×10 minutes and in TBS for 1×10-minute wash. Proteins were visualized using Odyssey® infrared imaging system. Protein expression was quantified using Image Studio Lite (Version 5.2) and expression intensities were normalized to a house keeping protein, α-Tubulin or β-actin.

[3] abbreviates: hippocampus, 120 h, all treatment groups.

Structures are written as SMILES.

With `COc1ccc2[nH]cc(CCN(C)C)c2c1` [5-MeO-DMT, 5-methoxy-N,N-dimethyltryptamine], in assay [1], the “immobility or time spent swimming” value is listed as “no differences in immobility or time spent swimming”. Further, the climbing time result in assay [1] (cocaine and 5-MeO-DMT (10 mg/kg) combination relative to control) is on record as “significant increase in climbing time”. Also, the 5-HT1AR expression result in assay [2] (hippocampus, 24 h, 10 mg/kg 5-MeO-DMT alone (decrease)) is “only the 10 mg/kg concentration achieves significance”; in assay [2] (hippocampus, 24 h, 20 mg/kg 5-MeO-DMT alone) it was “trend towards decreasing expression levels”; in assay [2] (hippocampus, 24 h, cocaine + either 5-MeO-DMT concentration (10 or 20 mg/kg)), “restoring receptor expression to levels comparable to control”; in assay [2] (setting [3]), “equal across treatment groups”.

On to `COC(=O)[C@H]1[C@@H](OC(=O)c2ccccc2)C[C@@H]2CC[C@H]1N2C.Cl` [cocaine, cocaine hydrochloride, reference compound], for which the “immobility or time spent swimming” value in assay [1] was “no differences in immobility or time spent swimming”. Also, the 5-HT1AR expression result in assay [2] (amygdala, 24 h, cocaine, p=0.0172, no post hoc differences) was “significant cocaine effect”; in assay [2] (amygdala, 120 h, cocaine), “does not persist to 120 hours”; in assay [2] (hippocampus, 24 h, repeated cocaine), “decreased 5-HT1AR expression”; in assay [2] (setting [3]), “equal across treatment groups”.
